One test deals with PBMC. Description: Cell mitosis assay. It is filed as cell-based. Conditions: Homo sapiens; for inhibition at 5 µg/mL: read-out: Mitosis Assay % inhibition in PBMC Cells at concn 5 μg/mL. The protocol:
Peripheral blood mononucleocytes (PBMCs) from healthy subjects were separated from whole blood (Quintiles, London, UK) using a density gradient (Histopaque®-1077, Sigma-Aldrich, Poole, UK). The PBMCs (3 million cells per sample) were subsequently treated with 2% PHA (Sigma-Aldrich, Poole, UK) for 48 hr, followed by a 20 hr exposure to varying concentrations of test compounds. At 2 hr before collection, PBMCs were treated with demecolcine (0.1 μg/mL; Invitrogen, Paisley, UK,) to arrest cells in metaphase. To observe mitotic cells, PBMCs were permeabilised and fixed by adding Intraprep (50 μL; Beckman Coulter, France), and stained with anti-phospho-histone 3 ([…]; #9701; Cell Signalling, Danvers, Mass.) and propidium iodide (1 mg/mL; Sigma-Aldrich, Poole, UK,) as previously described (Muehlbauer P. A. and Schuler M. J., Mutation Research, 2003, 537:117-130). Fluorescence was observed using an ATTUNE flow cytometer (Invitrogen, Paisley, UK), gating for lymphocytes.

Another test has as its system RSV A2. Nature of the test: In vitro RSV virus load (F-protein ELISA) in primary bronchial epithelial cells. Format: cell-based, respiratory syncytical virus. The settings on record: human respiratory syncytial virus, Primary bronchial epithelial cell; for inhibition at 0.04 µg/mL: at 0.04 μg/mL, read-out: RSV (F-Elisa) (HBEC) % inhibition. The method, then:
Normal human bronchial epithelial cells (NHBEC) grown in 96 well plates were infected with RSV A2 (Strain A2, HFA, Salisbury, UK) at an MOI of 0.001 in the LHC8 Media:RPMI-1640 (50:50) containing 15 mM magnesium chloride and incubated for 1 hr at 37° C. for adsorption. The cells were then washed with PBS (3×200 μL), fresh media (200 μL) was added and incubation continued for 4 days. Where appropriate, cells were pre-incubated with the compound or DMSO for 2 hr, and then added again after washout of the virus.
The cells were fixed with 4% formaldehyde in PBS solution (50 μL) for 20 min, washed with washing buffer (3×200 μL; PBS including 0.5% BSA and 0.05% Tween-20) and incubated with blocking solution (5% condensed milk in PBS) for 1 hr. Cells were then washed with washing buffer (3×200 μL) and incubated for 1 hr at RT with anti-RSV (2F7) F-fusion protein antibody (40 μL; mouse monoclonal, lot 798760, Cat. No. ab43812, Abcam) in 5% BSA in PBS-tween). After washing, cells were incubated with an HRP-conjugated secondary antibody solution (50 μL) in 5% BSA in PBS-Tween (lot 00053170, Cat.No. P0447, Dako) and then TMB substrate (50 μL; substrate reagent pack, lot 269472, Cat. No. DY999, R&D Systems, Inc.) was added. This reaction was stopped by the addition of 2N H2SO4 (50 μL) and the resultant signal was determined colorimetrically (OD: 450 nm with a reference wavelength of 655 nm) in a microplate reader (Varioskan® Flash, ThermoFisher Scientific).
After washing with washing buffer, 1% SDS in distilled water (100 μL) was added to each well, and plates were shaken lightly on the shaker for 1 hr prior to reading the absorbance at 595 nm. The measured OD450-655 readings were corrected to the cell number by dividing the OD450-655 by the OD595 readings. The percentage inhibition for each well was calculated and the IC50 value was calculated from the concentration-response curve generated from the serial dilutions of compound.
Background: An ELISA detects its analyte on a solid surface through an enzyme-linked reagent.

The test system of another test is IL-8. Description: Rhinovirus-induced IL-8 release in BEAS2B cells. Format: cell-based. The settings on record: Homo sapiens, BEAS-2B. The procedure, abridged: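 BEAS2B cells infected with HRV RV16 at MOI 5 for 2 h at 33 °C, washed, then cultured 72 h; compounds given 2 h before infection and again after washout. IL-8 measured in supernatant by ELISA; surface ICAM-1 by cell-based ELISA (OD450–655), normalised to crystal violet cell count (OD595).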

For test [1], the system named is TNFα. Description: LPS-induced TNFα release in THP-1 cells. It is filed as cell-based. The settings on record: Homo sapiens, THP-1, THP1 cells. The protocol:
THP-1 cells, a human monocytic cell line, were stimulated with 3 μg/mL of LPS (from E. Coli; 0111:B4, Sigma) for 4 hr and the supernatant collected for determination of the TNFα concentration by sandwich ELISA (Duo-set, R&D systems). The inhibition of TNFα production was calculated at each concentration by comparison with vehicle control.

The test system of a further test is HRV16. Nature of the test: HRV16 induced CPE in MRC5 cells. The settings on record: Human rhinovirus sp.; for inhibition at 0.04 µg/mL: HRV16, MRC5, at 0.04 μg/mL, read-out: HRV CPE (MRC5) % inhibition. Format: cell-based. The method, then: The supernatants were aspirated, and then fresh media added followed by incubation for 4 days. Where appropriate, cells were pre-incubated with compound or DMSO for 2 hr, and the compounds and DMSO added again after washout of the virus.
The percentage inhibition for each well was calculated. The IC50 value was calculated from the concentration-response curve generated by the serial dilutions of the test compounds.

In test [2] the test system is TNFα. Nature of the test: LPS-induced TNFα release in d-U937 cells. Conditions: Homo sapiens, dU937, dU937 cells; relative to 10 μg/mL BIRB796; read-out: LPS Induced Release TNFα REC50 (dU937). It is filed as cell-based. The procedure, abridged: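 U937 cells differentiated with PMA (100 ng/mL, 48–72 hr) were pre-incubated with compound for 2 hr, then stimulated with E. coli O111:B4 LPS (0.1 μg/mL) for 4 hr. Supernatant cytokine measured by sandwich ELISA; inhibition vs vehicle control at each concentration, REC50 taken from the concentration-response curve.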

The structures appear in SMILES notation.

In general, IC50 refers to the concentration at which inhibition is half-maximal.

Turning to `Cc1ccc(-n2nc(C(C)(C)C)cc2NC(=O)Nc2ccc(Oc3ccnc(Nc4cccc(O)c4)n3)c3ccccc23)cc1` [Example 2, 1-(3-(tert-Butyl)-1-(p-tolyl)-1H-pyrazol-5-yl)-3-(4-((2-((3-hydroxyphenyl)amino)pyrimidin-4-yl)oxy)naphthalen-1-yl)urea], in the test on PBMC, the inhibition at 5 µg/mL is 70.6%. Besides, the inhibition at 0.04 µg/mL with RSV A2 came out at 42%; in the test on IL-8 (at 0.04 μg/mL, read-out: HRV IL-8 (BEAS2B) % inhibition), 100%; in the test on HRV16, 5%. Moreover, it took 2.8 nM to reach half-maximal inhibition in the test on TNFα [1] (IC50). Also, the EC50 with TNFα [2] came to 2.4 nM.
Take `Cc1ccc(-n2nc(C(C)(C)C)cc2NC(=O)Nc2ccc(Oc3ccnc(Nc4ccccc4)n3)c3ccccc23)cc1` [Example 1, 1-(3-(tert-Butyl)-1-(p-tolyl)-1H-pyrazol-5-yl)-3-(4-(2-(phenylamino)pyrimidin-4-yloxy)naphthalen-1-yl)urea]: the inhibition at 1 µg/mL in the test on PBMC (read-out: Mitosis Assay % inhibition in PBMC Cells at concn 1 μg/mL) was 13.7%. In addition, in the test on PBMC, the inhibition at 5 µg/mL came out at 31.3%. Besides, the inhibition at 0.04 µg/mL in the test with RSV A2 turned out to be 85%; in the test with HRV16 it was 57%. The concentration for half-maximal inhibition (IC50) is 15.4 nM in the test on RSV A2 (read-out: RSV (F-Elisa) (HBEC) IC50); 0.036 nM in the test on IL-8 (BEAS2B cells, HRV-16); 3.4 nM in the test on TNFα [1]; 17.1 nM in the test with HRV16 (HRV16, MRC5 cells, HRV-16). Moreover, the EC50 in the test with TNFα [2] stood at 2.3 nM.

Source of the values: patent US10238658B2, “1-pyrazolyl-3-(4-((2-anilinopyrimidin-4-yl) oxy) napththalen-1-yl) ureas as p38 MAP kinase inhibitors” (Respivert Limited, priority 2011, dated 2019).
